Several values for one entry are separate records, joined by “and”; a condition that tells them apart may be missing. Equal values may be shown once. Peptide text beside a SMILES is read from it.
Assays:
[1] = mixture of the Δ‐ and Λ‐ isomers; cited from earlier work
Source text: Table 1 Photochemical properties of isolated Δ and Λ diastereoisomers of [1]Cl2–[3]Cl2 including molar extinction coefficients (ε, in M ^−1 cm^−1) at absorption maximum wavelength (405 nm), photosubstitution quantum yields for step 1 (ΦPS1) and step 2 (ΦPS2) in H2O or 50% MeCN in H2O under green light irradiation, and singlet oxygen quantum yields of each complexes in CD3OD. | column: Complex || To evaluate the efficiency of these ruthenium‐peptide conjugates [1]Cl2–[3]Cl2 as potential PDT type II agents, the quantum yields (ΦΔ) of singlet oxygen generation were further measured by direct spectroscopic detection of ^1O2 emission at 1275 nm in air‐saturated CD3OD (Table 1; Figure S21, Supporting Information). The ΦΔ value for a mixture of the Δ‐ and Λ‐ isomers of [1]Cl2 was already reported in our previous work (0.013 ± 0.005)^[ [51] ^]; within experimental errors, the values found for the isolated isomers were identical (0.008 ± 0.005 and 0.009 ± 0.005), and, like for the isomers of [ ...

A549 cells [2] = assay: Intracellular ROS generation, CellROX Deep Red probe, FACS; format: cell-based, human; settings: for Normalized intracellular ROS generation, light: light 515 nm, 13.1 J cm^−2
Experimental: To determine the pathway by which the compounds cause cell death, a ROS generation assay was performed for Δ and Λ isomers of [1]Cl2–[3]Cl2 in A549 cells using the unspecific molecular probe CellROX Deep Red. This assay was used to quantify the formation of singlet oxygen, superoxide, and […], both in the dark or upon green light irradiation (515 nm, 13.1 J cm^−2). The cells treated with medium, Tert‐butyl hydroperoxide (tBHP), cisplatin, and Rose Bengal were used as vehicle control, positive control, negative control, and green light‐activated PDT type II control, respectively. These experiments were conducted in normoxic and hypoxic cells at the same time. The mean fluorescence intensity in each cell, which was quantified by FACS and normalized to that of controls, is a relative measure of intracellular ROS production (see Table 3; raw data in Figures S30 and S31, Supporting Information). At the end of the assay, the absolute ratio R, defined as the ratio of the ROS probe emission intensity in the light group, divided by that in the dark group, was used as quantification of light‐induced ROS production.
The generation of ROS (reactive oxygen species) in A549 cells was measured using the ROS deep red fluorescence indicator (Abcam, ab186029). A549 (1 × 10^5, 1 mL) were seeded into 12‐well plates (Sarstedt, 83.3921) and incubated for 24 h in the dark under normoxia. The cells were then treated with [1]Cl2 ‐[3]Cl2, cisplatin, Rose Bengal or [Ru(Ph2phen)2Cl2] (15 µM). There were two groups for each drug (dark and light). After 24 h of incubation under normoxia, the plate was washed with cold PBS once, and cells were trypsinized, harvested, and then resuspended in 150 µL PBS. The cell suspension from the centrifuge tubes was transferred to 96‐round bottom well plates (Thermo Scientific, 268200), and the plates were kept in the dark or irradiated with […] light (dose = 13.1 J cm^−2). After which, the Cellular ROS Deep Red dye was added with 1000× dilution, and the cells were further stained for 1 h. The levels of intracellular ROS were then determined using the CytoFLEX flow cytometer using the APC‐A (638 nm excitation, 660/10 nm emission) channel. All flow cytometry data were processed using FlowLogic 8.5 software.

A549 cells [3] = assay: 2D cytotoxicity, sulforhodamine B (SRB) end point assay; format: cell-based, human; settings: A549 2D normoxic cells, 72 h, without washing, no irradiation
Experimental: Considering the potential of the six diastereomers for PACT, and their better targeting of αvβ3 in hypoxic A549 cells, compared with PC‐3, their cytotoxicity was determined in 2D monolayers of normoxic and hypoxic A549 cells using a sulforhodamine B (SRB) cell quantification end point assay^[ [66] ^] in the dark (light dose 0 J cm^−2) or upon green light activation (light dose 13.1 J cm^−2). Half‐maximal effective concentrations (EC50 in µM) were measured as an evaluation of the toxicity of the compounds. The photoindex values (PI), defined as EC50,dark/ EC50,light, were calculated to quantify the extent of light activation in cancer cells. […]
A549 cells (5000) or PC‐3 cells (6000) were seeded in 96‐well plates (Sarstedt, 83.3924), each well contained 100 µL Opti‐MEM (Gibco complete medium 11058‐021, supplemented with 2.5% v/v fetal calf serum (FCS), 0.2% v/v penicillin/streptomycin (P/S), and 1% v/v glutamine) either in normoxic (21% O2) or hypoxic (1.0% O2) incubator. […] Finally, 100 µL of cold trichloroacetic acid (10% w/v) was added to each well to fix the cells, and all plates were then transferred to a 4 °C refrigerator for 48 h before performing an SRB cell quantification endpoint assay (see below).^[ [66] ^] […] Errors were calculated utilizing 95% confidence intervals (±CI in µM). […]

[4] = A549, hypoxia (1%), 15 µM, 24 h
[5] = A549, hypoxia (1%), 15 µM, 24 h, dark, normalized to dark control
[6] = A549, hypoxia (1%), 15 µM, 24 h, normalized to dark control
[7] = A549, normoxia (21%), 15 µM, 24 h
[8] = A549, normoxia (21%), 15 µM, 24 h, dark, mean fluorescence normalized to dark control
[9] = A549, normoxia (21%), 15 µM, 24 h, normalized to dark control

## [Ru(Ph2phen)2(Ac‐MRGDM‐NH2)]Cl2 (sidechain bridge or staple) [[1]Cl2]
[1]
  ΦΔ (1O2) singlet oxygen quantum yield: 0.013 ± 0.005

## Ac-MRGDM-NH2
other
  molar extinction coefficient ε × 10^4 at 405 nm (× 10^4 M^−1 cm^−1): 1.18 and 1.21

## N.N.[Cl][Pt][Cl] [Cisplatin, cisplatin]
A549 cells [2]; [4]
  R (ROS probe emission light group / dark group): 2.00
A549 cells [2]; [5]
  Normalized intracellular ROS generation, dark: 1.00
A549 cells [2]; [6]
  Normalized intracellular ROS generation, light: 1.99
A549 cells [2]; [7]
  R (ROS probe emission light group / dark group): 1.74
A549 cells [2]; [8]
  Normalized intracellular ROS generation, dark: 1.28
A549 cells [2]; [9]
  Normalized intracellular ROS generation, light: 2.23

## CSCC[C@H](NC(=O)[C@@H](CC(=O)O)NC(=O)CNC(=O)[C@@H](CCCNC(=N)N)NC(=O)[C@H](CCSC)NC(C)=O)C(N)=O (HELM PEPTIDE1{[ac].M.[dR].G.[dD].M.[am]}$$$$V2.0)
other
  molar extinction coefficient ε × 10^4 at 405 nm (× 10^4 M^−1 cm^−1): 1.12 and 1.05

## F[P-](F)(F)(F)(F)F.F[P-](F)(F)(F)(F)F.[Ru+2].c1ccc(-c2ccnc3c2ccc2c(-c4ccccc4)ccnc23)cc1.c1ccc(-c2ccnc3c2ccc2c(-c4ccccc4)ccnc23)cc1 [[Ru(Ph2phen)2(H2O)2](PF6)2]
A549 cells [3]
  EC50: > 100 µM

## O=C([O-])c1c(Cl)c(Cl)c(Cl)c(Cl)c1-c1c2cc(I)c(=O)c(I)c-2oc2c(I)c([O-])c(I)cc12.[Na+].[Na+] [Rose Bengal]
A549 cells [2]; [4]
  R (ROS probe emission light group / dark group): 3.05
A549 cells [2]; [5]
  Normalized intracellular ROS generation, dark: 0.84
A549 cells [2]; [6]
  Normalized intracellular ROS generation, light: 2.56
A549 cells [2]; [7]
  R (ROS probe emission light group / dark group): 5.2 and 5.21
A549 cells [2]; [8]
  Normalized intracellular ROS generation, dark: 0.90
A549 cells [2]; [9]
  Normalized intracellular ROS generation, light: 4.71

## CC(C)(C)OO [tBHP, Tert‐butyl hydroperoxide]
A549 cells [2]; A549, hypoxia (1%), positive control 250 µM, 1 h
  Normalized intracellular ROS generation, dark: 4.36
A549 cells [2]; A549, normoxia (21%), positive control 250 µM, 1 h
  Normalized intracellular ROS generation, dark: 14.00

## CSCC[C@@H](NC(=O)[C@@H](CC(=O)O)NC(=O)CNC(=O)[C@@H](CCCNC(=N)N)NC(=O)[C@@H](CCSC)NC(C)=O)C(N)=O
other
  molar extinction coefficient ε × 10^4 at 405 nm (× 10^4 M^−1 cm^−1): 1.16 and 1.27

Source: article PMC12864594, “Photoactivated Proximity Protein Labeling Reveals Enhanced Tumor Retention of a D‐Peptide‐Ruthenium Prodrug Conjugate” (Advanced Healthcare Materials, 2025)
